Experiments:
[1] = in words; cited from earlier work
[2] = target: T1, beta-1 adrenergic receptor (Meleagris gallopavo, UniProt P07700); experiment: Beta-1 adrenergic activity, (H3) dihydroalprenolol radioligand binding to erythrocyte membranes; set-up: species or system turkey and rat; details: (H3) DHA, room temperature (23° C.), one hour; read-out: β1 K-50 (concentration required to displace 50% radioactive ligand from binding sites of beta adrenergic receptors)
T1 construct: Beta-1 adrenergic receptor membranes are isolated from turkey and rat erythrocytes; from tissue; host or cells: erythrocyte membranes from freshly drawn turkey blood (rat blood also given)
T1 sequence (P07700 whole entry): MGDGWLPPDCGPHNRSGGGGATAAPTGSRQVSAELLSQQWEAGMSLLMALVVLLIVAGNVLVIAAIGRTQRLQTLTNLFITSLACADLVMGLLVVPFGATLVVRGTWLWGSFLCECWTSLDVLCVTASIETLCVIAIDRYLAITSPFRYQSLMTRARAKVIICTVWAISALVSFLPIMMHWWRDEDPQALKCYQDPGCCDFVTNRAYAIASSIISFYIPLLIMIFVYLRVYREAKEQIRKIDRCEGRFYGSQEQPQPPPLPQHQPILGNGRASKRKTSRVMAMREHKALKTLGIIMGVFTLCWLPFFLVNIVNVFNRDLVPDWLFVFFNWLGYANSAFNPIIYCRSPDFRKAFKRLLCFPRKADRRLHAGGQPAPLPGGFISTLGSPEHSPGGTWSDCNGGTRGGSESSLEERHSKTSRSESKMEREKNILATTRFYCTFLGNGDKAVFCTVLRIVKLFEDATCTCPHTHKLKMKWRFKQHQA
Description: Beta-1 adrenergic activity of experimental compounds is identified by radioactive ligand-binding studies by using beta adrenergic receptor membranes and adrenergic antagonist (H3) dihydroalprenolol (DHA). Binding of (H3) DHA to membrane fractions is assayed by filtration on glass fiber filters. Specific binding is defined as total radioactivity bound minus nonspecific bound radioactivity, i.e., binding in the presence of 100 μM nonradioactive DHA. Results are expressed as the concentrations of the compound required to displace 50% radioactive ligand from binding of beta adrenergic receptors (K-50).
In these tests, beta adrenergic receptor membranes are incubated with radioactive dihydroalprenolol (H3 DHA) and experimental compounds. The bound radio-ligand is separated by filtration on glass fiber filters and counted by scintillation counter.
Radioactive ligand, H3 dihydroalprenolol (DHA) and aquasol are purchased from New England Nuclear Corporation, DMSO is supplied by J. T. Baker Company, and all other chemicals are obtained from Sigma Chemical Company.
Beta-1 adrenergic receptor membranes are isolated from turkey and rat erythrocytes respectively using the procedures of:
Freshly drawn heparinized whole blood from turkeys and rats is centrifuged for five minutes (4×500 g). The plasma is withdrawn; the remaining erythrocytes are suspended in 150 mM sodium chloride solutions and centrifuged. The cells are resuspended and centrifuged twice more. The cells are hemolyzed in 10 volume of cold distilled water containing 2 mM dithiothreitol, 100 μM phenylmethyl sulfonyl fluoride, 5 μg/mL leupeptin, 200 μg/mL bacitacin, 0.1% bovine serum albumin, and 10 units/mL aprotonin, and centrifuged at 3000×g for five minutes. The bottom gelatin layer is discarded. The top layer is suspended and centrifuged five times at 3000×g and resuspended in tris buffer (145 mM NaCl, 1 mM ethylene glycol-bis(β-aminoethyl ether) N,N,N,N, tetraacetic acid, 2 mM MgCl2, 10 mM tris, and 10% glycerol, pH 7.4). The resuspended membranes are further purified with differential centrifugation by using sucrose albumin cushion, and subsequently stored in small aliquots at -70° C. The protein concentration of receptor membranes is determined by the biuret method.
To duplicate incubation, tubes are added 200 μl suspended membranes (200 μg protein), 25 μl of compound in solution or buffer and 25 μl (H3) dihydroalprenolol (200,000 CPM). Tubes were incubated at room temperature (23° C.) for an hour and then filtered rapidly under vacuum through Whatman GF/B filters. The filters are rinsed three times with 5 mL of cold buffer (145 mM NaCl, 1 mM ethylenediaminetetraacetic acid, and 10 mM tris, pH 7.4) and subsequently counted by liquid scintillation counter in 10 mL of aquasol. Specific binding of H3 DHA is defined as the excess over blank containing 100 μM nonradioactive DHA. Six serial dilutions of each compound are tested.
Beta adrenergic activity is inversely related to K-50 (the concentrations of the compound required to displace 50% radioactive ligand from binding sites of beta adrenergic receptors, i.e., 50% binding) value.

wether lambs = experiment: Evaluation in wether lambs (growth, feed efficiency, muscle, fat, carcass), eight weeks; type: in vivo; details: for ADG (Average daily gain): eight weeks; for Subcutaneous Fat Depth Over Loin / Muscle Cross-Sectional Area: 12th rib; for Muscle Cross-Sectional Area: longissimus dorsi
From the text: Evaluation of 3-[2-(tert-butylamino)1-hydroxyethyl]-5-fluorobenzonitrile for growth enhancement, feed efficiency improvement, increased deposition of muscle tissue and/or protein and improvement in carcass composition
To determine the effect of feeding experimental compounds to ruminants, wether lambs are randomly allotted to pens in groups of five. Three replications per treatment are used. The lambs are weighed and permitted feed and water ad libitum. The feed is weighed daily, and uneaten feed from the previous day is collected and weighed. Test lambs receive the same diet as control animals, but with the addition of experimental compound at a concentration of from 5 ppm to 20 ppm. The tests are conducted for a period of eight weeks at the end of which the lambs are again weighed, and the feed consumed calculated. The lambs are then necropsied. Eight animals per treatment are dressed, and the average cross-sectional area of the longissimus dorsi and depth of subcutaneous fat measured at the 12th rib.

[3] = tested on: Hubbard X Hubbard Crossbred Chicks; experiment: Evaluation as feed additive in poultry (growth rate, feed utilization, carcass yield), seven weeks; type: in vivo; details: for Gain: seven weeks; for FE (Feed efficiency): feed/gain ratio; for FE, Percent (±) Control: percent improvement
From the text: Evaluation of 3-[2-(tert-butylamino)-1-hydroxyethyl]-5-fluorobenzonitrile as an animal feed additive for (1) the enhancement of the growth rate of poultry, (2) improvement in feed utilization thereby, (3) increase in the deposition of muscle tissue or protein in said birds and (4) improvement in the carcass quality of treated birds
One-day old Hubbard X Hubbard Crossbred Chicks, randomly allotted to pens of ten chicks (five males and five females) each.
Eight pens of chicks are used for unmedicated controls, and six pens of chicks are used at each level of drug. The duration of the experiment is seven weeks.
The controls are offered an unmedicated diet of Broiler Ration No. 453 (composition given below) and water ad libitum. Medicated chicks are offered the same diet containing the test drug at the levels indicated above, and water ad libitum. The weight of the chicks is determined at the beginning and on completion of the experiments. Weight gains and the amount of feed consumed are also determined. In addition, ten males and ten females from each group are randomly selected and sacrificed by decapitation. These birds were bled, the feathers, feet, and viscera removed, and the resulting carcass weighed.
The thus-obtained data are averaged and summarized in Table IV below, wherein the percent improvement in weight gains and feed/gain ratios are given.

CFI female mice = experiment: Antilipogenic evaluation of test compounds - mouse study (Example 6, procedure of Example 4); type: in vivo; details: versus related analogues
Description: CFI female mice from Carworth Farms are received when they are six-weeks old. They are housed ten to a cage in air-conditioned rooms (22° C. to 25° C.) with automatically-controlled lights, 14 hours on and ten hours off. The basal diet used in these studies is Purina Laboratory Chow (see description below) which is supplied ad libitum.
Thirteen days after arrival, the mice are weighed in groups of ten and assigned at random to the different treatments. Each of the treatments is tested in three replicates, i.e., in three cages of ten mice each. There are ten cages of ten control mice each. Drugs are mixed in the diet at the dosage level indicated. Feed and water are offered ad libitum for a 12-day test period. Feed spilled is collected during the test period. At the end of the test period, the collected feed is weighed, and the mean feed consumption per cage of ten mice is determined for each treatment. The mice are weighed as a group of ten, and the weight gain determined. The mice are sacrificed by cervical dislocation. The right uterine fat pad of each mouse is removed. The fat pads for each cage of ten mice are weighed as a unit. Reduction in fat pad weights of animals is generally indicative of a reduction of total body fat of the treated animals.
Following the procedure of Example 4, the analogues of the compounds of the invention in the subject Application are evaluated as antilipogenic agents.

## CC(C)(C)NCC(O)c1cc(Cl)c(N)c(Cl)c1 (stereo not shown) [Clenbuterol]
[1]
  bronchodilator activity: very effective bronchodilator
  heart stimulant activity: potent heart

## CC(C)NCC(O)c1cc(F)cc(C#N)c1 (stereo not shown) [drawing 22]
[2]
  IC50: 12.3 µM

## CCNCC(O)c1cc(F)cc(C#N)c1 (stereo not shown) [drawing 21]
[2]
  IC50: 3.04 µM

## CC(C)(C)NCC(O)c1cc(F)cc(C#N)c1 (stereo not shown) [drawing 23]
[2]
  IC50: 16.6 µM

## CC(C)(C)NCC(O)c1cc(F)cc(C#N)c1 (stereo not shown) [3-[2-(tert-Butylamino)-1-hydroxyethyl]-5-fluorobenzonitrile]
Wether lambs; 5 ppm in diet
  AD Feed Consumed (Average daily feed consumed): 1.43 kg/day
  AD Feed Consumed, Percent (±) Control: +2.9%
  ADG, Percent (±) Control: +11.3%
  Carcass Yield: 51.80% of live weight
  Carcass Yield, Percent (±) Control: +1.8%
  FE (Feed efficiency): 6.36
  FE, Percent (±) Control: +7.0%
  Muscle Cross-Sectional Area, Percent (±) Control: +6.8%
  Subcutaneous Fat Depth Over Loin, Percent (±) Control: +23.8%
  ADG (Average daily gain): 226 g
  Subcutaneous Fat Depth Over Loin: 3.2 cm
  Muscle Cross-Sectional Area: 17.69 cm^2
Wether lambs; 10 ppm in diet
  AD Feed Consumed (Average daily feed consumed): 1.50 kg/day
  AD Feed Consumed, Percent (±) Control: +7.9%
  ADG, Percent (±) Control: +24.6%
  Carcass Yield: 51.52% of live weight
  Carcass Yield, Percent (±) Control: +1.3%
  FE (Feed efficiency): 5.91
  FE, Percent (±) Control: +13.6%
  Muscle Cross-Sectional Area, Percent (±) Control: +11.4%
  Subcutaneous Fat Depth Over Loin, Percent (±) Control: +35.7%
  ADG (Average daily gain): 253 g
  Subcutaneous Fat Depth Over Loin: 2.7 cm
  Muscle Cross-Sectional Area: 18.44 cm^2
Wether lambs; 20 ppm in diet
  AD Feed Consumed (Average daily feed consumed): 1.39 kg/day
  AD Feed Consumed, Percent (±) Control: +0.0%
  ADG, Percent (±) Control: +15.3%
  Carcass Yield: 54.15% of live weight
  Carcass Yield, Percent (±) Control: +6.5%
  FE (Feed efficiency): 5.92
  FE, Percent (±) Control: +13.5%
  Muscle Cross-Sectional Area, Percent (±) Control: +24.2%
  Subcutaneous Fat Depth Over Loin, Percent (±) Control: +57.1%
  ADG (Average daily gain): 234 g
  Subcutaneous Fat Depth Over Loin: 1.8 cm
  Muscle Cross-Sectional Area: 20.56 cm^2
[3]; 0.25 ppm in diet
  Carcass Yield: 69.46% of live weight
  Carcass Yield, Percent (±) Control: +1.0%
  Feed Consumed: 2.576 kg
  Feed Consumed, Percent (±) Control: +0.4%
  Gain, Percent (±) Control: +2.5%
  Gain: 1.105 kg
  FE (Feed efficiency): 2.333
  FE, Percent (±) Control: +2.1%
[3]; 0.5 ppm in diet
  Carcass Yield: 68.73% of live weight
  Carcass Yield, Percent (±) Control: 0.0%
  Feed Consumed: 2.571 kg
  Feed Consumed, Percent (±) Control: +0.2%
  Gain, Percent (±) Control: +5.0%
  Gain: 1.132 kg
  FE (Feed efficiency): 2.274
  FE, Percent (±) Control: +4.6%
[3]; 1 ppm in diet
  Carcass Yield: 69.66% of live weight
  Carcass Yield, Percent (±) Control: +1.3%
  Feed Consumed: 2.573 kg
  Feed Consumed, Percent (±) Control: +0.2%
  Gain, Percent (±) Control: +1.9%
  Gain: 1.097 kg
  FE (Feed efficiency): 2.350
  FE, Percent (±) Control: +1.4%
[3]; 2 ppm in diet
  Carcass Yield: 69.30% of live weight
  Carcass Yield, Percent (±) Control: +0.8%
  Feed Consumed: 2.578 kg
  Feed Consumed, Percent (±) Control: +0.4%
  Gain, Percent (±) Control: +3.3%
  Gain: 1.114 kg
  FE (Feed efficiency): 2.315
  FE, Percent (±) Control: +3.0%
CFI female mice
  effectiveness as an antilipogenic agent: markedly more effective as an antilipogenic agent than its related aanalogues

## CCCC(C)NCC(O)c1cc(F)cc(C#N)c1 (stereo not shown) [drawing 19]
[2]
  IC50: 2.2 µM

## CC(C)N(CC(O)c1cc(F)cc(C#N)c1)C(C)C (stereo not shown) [drawing 20]
[2]
  IC50: 2.95 µM
